pIC50: −log10 of the molar value.

The target of the assay is Axl (Homo sapiens (Human), UniProt P30530). Briefly: Phospho-Akt in-cell Western assay (Axl-antibody cross-linking stimulation). The class given is cell-based. To be noted: inhibition of Axl activity. The protocol:
The working solution: dilute the stock 1:20 with PBS immediately before use. • 10% SDS: working solution: 5% SDS (sodium dodecylsulfate), diluted in PBS Methods: Day 1:
A 96 well TC (tissue culture treated) plate was coated with 10 μg/mL poly-L-Lysine at 37° C. for 30 min, washed twice with PBS, and air-dried for 5 minutes before cells were added. Hela cells were seeded at 10,000 cells/well and the cells were starved in 100 μL starvation medium containing Axl/Fc for 24 hrs.
The cells were pre-treated with test compounds by adding 100 μL of 2× test compound to the starvation medium on the cells. The cells were incubated at 37° C. for 1 hr before stimulation.
The resulting mix was warmed to 37° C. 50 μL of 5× Axl 1st/2nd of antibody cluster was added to the cells and the cells were incubated at 37° C. for 5 min.
After 5 minutes stimulation, the plate was flicked to remove medium and the plate was tapped onto paper towels. Formaldehyde (4.0% in PBS, 100 μL) was added to fix the cells and the cells were incubated at ambient temperature for 20 min without shaking.
The cells were washed with a plate washer buffer to remove the formaldehyde solution. The plate was flicked to removed excess wash buffer and tapped onto paper towels. Quenching buffer (100 μL) was added to each well and the cells were incubated at ambient temperature for 20 minutes without shaking.
The cells were washed with a plate washer buffer to remove the quenching buffer. Blocking buffer (100 μL) was added and the cells were incubated at ambient temperature for at least an hour with gentle shaking.
The cells were washed with a plate washer buffer and diluted primary antibody (50 μL) was added to each well (blocking buffer was added to the negative control wells instead). The plates were incubated overnight at 4° C. with gentle shaking.
The wash buffer was removed, diluted secondary antibody (100 μL) was added, and the cells were incubated at ambient temperature for 1 hour with gentle shaking. During the incubation, the chemiluminescent reagent was brought to ambient temperature.
The secondary antibody was removed by washing the cells 1× with wash buffer, 1× with PBS by plate washer. The PBS was removed from the plate and the chemiluminescent reagent (80 μL: 40 μL A and 40 μL B) was added to each well at ambient temperature.
The resulting chemiluminescence was read with a Luminomitor within 10 minutes to minimize changes in signal intensity. […] The plate was tapped onto paper towels to remove excess liquid from wells and air-dried at ambient temperature for 5 minutes.
Crystal Violet working solution (60 μL) was added to each well and the cells were incubated at ambient temperature for 30 min. The crystal violet solution was removed, and the wells were rinsed with PBS, then washed 3× with PBS (200 μL) for 5 minutes each.
5% SDS solution (70 μL) was added to each well and the cells were incubated on a shaker for 30 min at ambient temperature.
This relative cell number was then used to normalize each luminescence reading. […]

Where [1] appears, read: Hela cells, phospho-Akt readout, Table 5, formula (Ia3).
Setting [2] is: phospho-Akt in-cell Western assay.

Sequence of Axl (P30530 26-894): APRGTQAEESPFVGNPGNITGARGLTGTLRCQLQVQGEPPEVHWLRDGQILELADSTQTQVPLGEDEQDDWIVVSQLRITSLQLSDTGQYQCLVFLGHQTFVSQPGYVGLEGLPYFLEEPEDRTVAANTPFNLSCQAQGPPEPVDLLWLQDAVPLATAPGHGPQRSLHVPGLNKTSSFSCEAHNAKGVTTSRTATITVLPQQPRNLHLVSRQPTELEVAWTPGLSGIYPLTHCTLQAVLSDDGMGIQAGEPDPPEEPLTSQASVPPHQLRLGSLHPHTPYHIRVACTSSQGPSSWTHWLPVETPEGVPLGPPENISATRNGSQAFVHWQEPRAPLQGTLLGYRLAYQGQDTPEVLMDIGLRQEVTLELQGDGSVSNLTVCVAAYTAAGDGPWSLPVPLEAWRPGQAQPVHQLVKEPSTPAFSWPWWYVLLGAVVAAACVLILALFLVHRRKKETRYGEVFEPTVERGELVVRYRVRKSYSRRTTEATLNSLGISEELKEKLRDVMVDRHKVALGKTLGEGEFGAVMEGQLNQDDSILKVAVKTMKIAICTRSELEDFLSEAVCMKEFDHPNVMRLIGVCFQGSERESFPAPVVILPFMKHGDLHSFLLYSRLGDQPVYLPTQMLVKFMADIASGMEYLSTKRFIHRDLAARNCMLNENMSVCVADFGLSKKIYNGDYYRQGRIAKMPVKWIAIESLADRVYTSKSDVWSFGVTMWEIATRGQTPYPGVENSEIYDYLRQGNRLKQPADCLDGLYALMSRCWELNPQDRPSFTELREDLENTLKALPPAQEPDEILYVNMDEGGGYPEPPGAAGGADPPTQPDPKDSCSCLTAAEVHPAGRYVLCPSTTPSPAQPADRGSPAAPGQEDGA

For the compound `Cc1csc2c(-n3nc(Nc4ccc(C(=O)N5CCN(C6CCCC6)CC5)cc4)nc3N)ncnc12` [Compound 207, 1-(7-methylthieno[3,2-d]pyrimidin-4-yl)-N^3-(4-(4-(cyclopentyl)piperazin-1-ylcarbonyl)phenyl)-1H-1,2,4-triazole-3,5-diamine], under setting [1], the pIC50 is > 6.00.

Regarding `COc1cc2ncnc(-n3nc(Nc4ccc(N5CCN(C6CCCCCC6)CC5)cc4)nc3N)c2cc1OC` [Compound 110, N^3-(4-(4-cycloheptylpiperazin-1-yl)phenyl)-1-(6,7-dimethoxyquinazolin-4-yl)-1H-1,2,4-triazole-3,5-diamine], the pIC50 under setting [2] is > 6.00.

As for `Nc1nc(Nc2ccc(N3CCN(C4CCCCC4)CC3)cc2)nn1-c1nccc2ccccc12` [Compound 81, N^3-(4-(4-cyclohexylpiperazin-1-yl)phenyl)-1-(isoquinolin-1-yl)-1H-1,2,4-triazole-3,5-diamine], the pIC50 under setting [2] was > 6.00.

Consider `Cc1csc2c(-n3nc(Nc4ccc(N5CCN(C6CC7CCC6C7)[C@H](C)C5)c(F)c4)nc3N)ncnc12` (stereo partly drawn) [Compound 248, 1-(7-methylthieno[3,2-d]pyrimidin-4-yl)-N^3-(3-fluoro-4-(3-(R)-methyl-4-(bicyclo[2.2.1]heptan-2-yl)piperazin-1-yl)phenyl)-1H-1,2,4-triazole-3,5-diamine], for which the pIC50 under setting [2] was > 6.00.

With `COc1cc2ccnc(-n3nc(Nc4ccc(N5CCN(C6CC7CCC6C7)CC5)cc4)nc3N)c2cc1OC` (stereo not drawn) [Compound 125, N^3-(4-(4-(bicyclo[2.2.1]heptan-2-yl)piperazin-1-yl)phenyl)-1-(6,7-dimethoxyisoquinolin-1-yl)-1H-1,2,4-triazole-3,5-diamine], under setting [2], the negative logarithm of the IC50 (pIC50) is > 6.00.

The compound `Cc1csc2c(-n3nc(Nc4ccc(N5CCN([C@H]6CC7CCC6C7)CC5)cc4)nc3N)nc(-c3cccc(NS(C)(=O)=O)c3)nc12` (stereo partly drawn) [Compound 238, 1-(7-methyl-2-(3-(methylsulfonyl)aminophenyl)thieno[3,2-d]pyrimidin-4-yl)-N^3-(4-(4-((2S)-bicyclo[2.2.1]heptan-2-yl)piperazin-1-yl)phenyl)-1H-1,2,4-triazole-3,5-diamine] showed a pIC50 under setting [2] of 5.00 to 6.00.

`Nc1nc(Nc2ccc(N3CCOCC3)c(F)c2)nn1-c1nccc2ccccc12` [Compound 161, N^3-(3-fluoro-4-morpholinophenyl)-1-(isoquinolin-1-yl)-1H-1,2,4-triazole-3,5-diamine]: the pIC50 under setting [1] is > 6.00.

Consider `COc1cc2ccnc(-n3nc(Nc4ccc(C5CCN(C)CC5)cc4)nc3N)c2cc1OC` [Compound 174, 1-(6,7-dimethoxyisoquinolin-1-yl)-N^3-(4-(1-methylpiperidin-4-yl)phenyl)-1H-1,2,4-triazole-3,5-diamine], for which, under setting [1], the pIC50 was > 6.00.

As for `Nc1nc(Nc2ccc(N3CCN(C4CCCC4)CC3)c(F)c2)nn1-c1nc2ccccc2c2ccccc12` [Compound 192, 1-(phenanthridin-6-yl)-N^3-(3-fluoro-4-(4-cyclopentylpiperazin-1-yl)phenyl)-1H-1,2,4-triazole-3,5-diamine], the negative logarithm of the IC50 (pIC50) under setting [2] was > 6.00.

For the compound `COc1cc2c(-n3nc(Nc4ccc(C5CCN(C)CC5)cc4)nc3N)ncnc2cc1O` [Compound 169, 4-(5-amino-3-(4-(1-methylpiperidin-4-yl)phenylamino)-1H-1,2,4-triazol-1-yl)-6-methoxyquinazolin-7-ol], the pIC50 under setting [1] was > 6.00.

Consider `Nc1nc(Nc2ccc(OCCN3CCCCC3)cc2)nn1-c1cccc(Cl)n1` [Compound 19, 1-(6-chloropyridin-2-yl)-N^3-(4-(2-(piperidin-1-yl)ethoxy)phenyl)-1H-1,2,4-triazole-3,5-diamine], for which the pIC50 (Hela cells, phospho-Akt readout, Table 1, formula (Ia1)) was > 6.00.

As to `COc1cc2ncnc(-n3nc(Nc4ccc(N5CCN(C6CCCCC6)CC5)c(F)c4)nc3N)c2cc1OC` [Compound 122, N^3-(4-(4-cyclohexylpiperazin-1-yl)-3-fluorophenyl)-1-(6,7-dimethoxyquinazolin-4-yl)-1H-1,2,4-triazole-3,5-diamine], under setting [2], the pIC50 is > 6.00.

Take `Cc1cc(N2CCN(C3CC4CCC3C4)CC2)ccc1Nc1nc(N)n(-c2ncnc3c(C)csc23)n1` (stereo not drawn) [Compound 202, 1-(7-methylthieno[3,2-d]pyrimidin-4-yl)-N^3-(2-methyl-4-(4-(bicyclo[2.2.1]heptan-2-yl)-piperazin-1-yl)phenyl)-1H-1,2,4-triazole-3,5-diamine]: the pIC50 under setting [2] was > 6.00.

Under setting [2], `Nc1nc(Nc2ccc(N3CCN(C4CC5CCC4C5)CC3)cc2)nn1-c1ncnc2cc(-c3ccccc3)sc12` (stereo not drawn) [Compound 129, N^3-(4-(4-(bicyclo[2.2.1]heptan-2-yl)piperazin-1-yl)phenyl)-1-(6-phenylthieno[3,2-d]pyrimidin-4-yl)-1H-1,2,4-triazole-3,5-diamine] showed a pIC50 of 5.00 to 6.00.

For the compound `Cc1csc2c(-n3nc(Nc4ccc(N5CCN([C@H]6CC7CCC6C7)CC5)cc4)nc3N)nc(-c3ccccc3Cl)nc12` (stereo partly drawn) [Compound 235, 1-(7-methyl-2-(2-chlorophenyl)thieno[3,2-d]pyrimidin-4-yl)-N^3-(4-(4-((2S)-bicyclo[2.2.1]heptan-2-yl)piperazin-1-yl)phenyl)-1H-1,2,4-triazole-3,5-diamine], the pIC50 under setting [2] is 5.00 to 6.00.

Consider `Cc1csc2c(-n3nc(Nc4ccc(N5CCN([C@H]6C[C@@H]7CC[C@H]6C7)CC5)cc4)nc3N)ncnc12` [Compound 188, 1-(7-methylthieno[3,2-d]pyrimidin-4-yl)-N^3-(4-(4-((1S,2S,4R)-bicyclo[2.2.1]heptan-2-yl)-piperazin-1-yl)phenyl)-1H-1,2,4-triazole-3,5-diamine], for which the pIC50 under setting [2] is > 6.00.

Consider `COc1cc2ncnc(-n3nc(Nc4ccc(N5CCOCC5)c(F)c4)nc3N)c2cc1OC` [Compound 162, 1-(6,7-dimethoxyquinazolin-4-yl)-N^3-(3-fluoro-4-morpholinophenyl)-1H-1,2,4-triazole-3,5-diamine], for which the pIC50 under setting [1] was > 6.00.

In the case of `Cc1csc2c(-n3nc(Nc4ccc(N5CCN([C@H]6CC7CCC6C7)CC5)cc4)nc3N)nc(C=CCN3CCN(C)CC3)nc12` (stereo partly drawn) [Compound 240, 1-(7-methyl-2-(3-(4-methylpiperazin-1-yl)prop-1-enyl)thieno[3,2-d]pyrimidin-4-yl)-N^3-(4-(4-((2S)-bicyclo[2.2.1]heptan-2-yl)piperazin-1-yl)phenyl)-1H-1,2,4-triazole-3,5-diamine], the pIC50 under setting [2] was 5.00 to 6.00.

For the compound `Cc1csc2c(-n3nc(Nc4ccc(N5CCN(C6CC7CCC6C7)CC5)c(F)c4)nc3N)nc(Cl)nc12` (stereo not drawn) [Compound 140, N^3-(4-(4-(bicyclo[2.2.1]heptan-2-yl)piperazin-1-yl)-3-fluorophenyl)-1-(2-chloro-7-methylthieno[3,2-d]pyrimidin-4-yl)-1H-1,2,4-triazole-3,5-diamine], the negative-log IC50 (pIC50) under setting [2] is 5.00 to 6.00.

For the compound `Cc1csc2c(-n3nc(Nc4ccc5c(c4)CCC(NC4CC6CCC4C6)CC5)nc3N)nc(Cl)nc12` (stereo not drawn) [Compound 222, 1-(7-methyl-2-chlorothieno[3,2-d]pyrimidin-4-yl)-N^3-(7-(N-bicyclo[2.2.1]heptan-2-yl)amino-6,7,8,9-tetrahydro-5H-benzo[7]annulene-2-yl)-1H-1,2,4-triazole-3,5-diamine], where the note is “Hela cells, phospho-Akt readout, Table 7, formula (Ia4)”, the pIC50 is > 6.00.

For `COc1cc2cnc(-n3nc(Nc4ccc(N5CCN(C)CC5)cc4)nc3N)nc2cc1OC` [Compound 180, 1-(6,7-dimethoxyquinazolin-2-yl)-N^3-(4-(4-methylpiperazin-1-yl)phenyl)-1H-1,2,4-triazole-3,5-diamine], the pIC50 under setting [2] is > 6.00.

As usually defined, the pIC50 is −log10 of the IC50, conventionally taken in molar units.

The values above are taken from patent publication US10166216B2 (Rigel Pharmaceuticals, Inc., priority 2006, dated 2019).
